Data from patent publication US12479821B2 (MBD CO., LTD., priority 2019, dated 2025).

Each molecule was assayed against T1, CYP4A (Homo sapiens, UniProt Q02928) (assay: CYP4A enzyme assay (Luciferin-ME luminescence, CYP4A bactosome)). Settings: compound concentration 5 μM; 25%-50%; read-out: % Inhibition 25%-50%.
T1 construct: host or cells: bactosome, i.e. bacterial membrane preparation (own knowledge of the term)
T1 sequence (Q02928 5-519): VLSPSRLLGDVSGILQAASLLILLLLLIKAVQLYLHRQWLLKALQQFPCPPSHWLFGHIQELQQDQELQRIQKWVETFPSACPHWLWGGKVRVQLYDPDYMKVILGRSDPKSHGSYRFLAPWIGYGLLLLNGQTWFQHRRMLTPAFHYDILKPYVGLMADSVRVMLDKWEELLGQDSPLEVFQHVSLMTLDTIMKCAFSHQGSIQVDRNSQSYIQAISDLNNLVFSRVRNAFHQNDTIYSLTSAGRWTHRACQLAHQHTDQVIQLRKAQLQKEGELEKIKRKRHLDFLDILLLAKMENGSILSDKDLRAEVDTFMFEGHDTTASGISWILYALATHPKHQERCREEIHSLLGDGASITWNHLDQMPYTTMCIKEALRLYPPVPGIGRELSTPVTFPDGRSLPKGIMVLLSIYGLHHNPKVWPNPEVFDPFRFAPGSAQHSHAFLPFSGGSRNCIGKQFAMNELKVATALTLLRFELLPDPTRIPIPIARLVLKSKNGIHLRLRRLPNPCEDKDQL
Type: biochemical
Protocol: A commercially available reagent was used for the reagent used in the experiment, and it was manufactured and used if necessary. The device used for activity measurement was EnVision of PerkinElmer or SpectraMax of MOLECULAR DEVICES.
First, CYP4A bactosome and synthetic compound (5 μM) were mixed in assay buffer (100 mM KPO4, 0.1% BSA, 1 mM DTT) in a 384-well plate (white opaque ploystyrene nontreated flat-bottom well), and then reacted at room temperature for 15 minutes. After adding 5 mM Luciferin-ME and NADPH Regeneration system (10× sol.A, 20× sol.B in assay buffer, Cat. Number: V865B, Promega), leave it at room temperature for 30 minutes to allow the CYP4A reaction to occur sufficiently, by adding the Luciferin Detection reagent, the CYP4A reaction was finished, luminescence reaction was induced, and the reaction was carried out at room temperature for 15 minutes. The degree of inhibition of CYP4A activity was measured by comparing the luminescence values from each well with a microplate reader.

SMILES | inhibition at 5 µM [%]
Cc1cc(N2CCN(C(=O)C3CCCN(S(=O)(=O)c4ccccc4)C3)CC2)c2ccccc2n1 (stereo not shown) [Formula 19, (4-(2-methylquinolin-4-yl)piperazin-1-yl) (1-(phenylsulfonyl)piperidin-3-yl) methanone] | 25 to 50
Cc1ccc(S(=O)(=O)N2CCCC(C(=O)N3CCN(c4cc(C)nc5ccccc45)CC3)C2)cc1 (stereo not shown) [Formula 20, (4-(2-methylquinolin-4-yl)piperazin-1-yl) (1-tosylpiperidin-3-yl) methanone] | 25 to 50
Cc1cccc(S(=O)(=O)N2CCCC(C(=O)N3CCN(c4cc(C)nc5ccccc45)CC3)C2)c1 (stereo not shown) [Formula 21, (4-(2-methylquinolin-4-yl)piperazin-1-yl) (1-(m-tolylsulfonyl)piperidin-3-yl) methanone] | 25 to 50
Cc1cc(N2CCN(C(=O)C3CCCN(S(=O)(=O)c4ccc(C)c(C)c4)C3)CC2)c2ccccc2n1 (stereo not shown) [Formula 22, (1-((3,4-dimethylphenyl)sulfonyl)piperidin-3-yl) (4-(2-methylquinolin-4-yl)piperazin-1-yl) methanone] | 25 to 50
CCc1ccc(S(=O)(=O)N2CCCC(C(=O)N3CCN(c4cc(C)nc5ccccc45)CC3)C2)cc1 (stereo not shown) [Formula 23, (1-(4-ethylphenylsulfonyl)piperidin-3-yl) (4-(2-methylquinolin-4-yl)piperazin-1-yl) methanone] | 25 to 50

Same assay, conditions: compound concentration 5 μM; 75% or more; read-out: % Inhibition 75% or more

SMILES | inhibition at 5 µM [%]
CN(C)c1ccc(S(=O)(=O)N2CCCC(C(=O)N3CCN(c4ccnc5cc(F)ccc45)CC3)C2)cc1 (stereo not shown) | ≥ 75
CN(C)c1ccc(S(=O)(=O)N2CCC[C@H](C(=O)N3CCN(c4ccnc5cc(F)ccc45)CC3)C2)cc1 | ≥ 75
CN(C)c1ccc(S(=O)(=O)N2CCCC(C(=O)N3CCN(c4ccnc5cc(Cl)ccc45)CC3)C2)cc1 (stereo not shown) [Formula 4, (4-(7-chloroquinolin-4-yl)piperazin-1-yl) (1-((4-(dimethylamino)phenyl)sulfonyl)piperidin-3-yl) methanone] | ≥ 75
O=C(C1CCCN(S(=O)(=O)c2ccc(O)cc2)C1)N1CCN(c2ccnc3cc(Cl)ccc23)CC1 (stereo not shown) [Formula 5, (4-(7-chloroquinolin-4-yl)piperazin-1-yl) (1-((4-hydroxyphenyl)sulfonyl)piperidin-3-yl) methanone] | ≥ 75
O=C(C1CCCN(S(=O)(=O)c2cccc([N+](=O)[O-])c2)C1)N1CCN(c2ccnc3cc(Cl)ccc23)CC1 (stereo not shown) [Formula 6, (4-(7-chloroquinolin-4-yl)piperazin-1-yl) (1-((3-nitrophenyl)sulfonyl)piperidin-3-yl) methanone] | ≥ 75
O=C(C1CCCN(S(=O)(=O)c2ccc(C(F)(F)F)cc2)C1)N1CCN(c2ccnc3cc(Cl)ccc23)CC1 (stereo not shown) [Formula 7, (4-(7-chloroquinolin-4-yl)piperazin-1-yl) (1-((4-(trifluoromethyl)phenyl)sulfonyl)piperidin-3-yl) methanone] | ≥ 75
N#Cc1ccc(S(=O)(=O)N2CCCC(C(=O)N3CCN(c4ccnc5cc(Cl)ccc45)CC3)C2)cc1 (stereo not shown) [Formula 10, 4-(3-(1-(7-chloroquinolin-4-yl)piperazine-4-carbonyl)piperidin-1-ylsulfonyl)benzonitrile] | ≥ 75
CS(=O)(=O)c1ccc(S(=O)(=O)N2CCCC(C(=O)N3CCN(c4ccnc5cc(Cl)ccc45)CC3)C2)cc1 (stereo not shown) [Formula 11, (4-(7-chloroquinolin-4-yl)piperazin-1-yl) (1-(4-(methylsulfonyl)phenylsulfonyl)piperidin-3-yl) methanone] | ≥ 75
COc1cccc(S(=O)(=O)N2CCCC(C(=O)N3CCN(c4ccnc5cc(Cl)ccc45)CC3)C2)c1 (stereo not shown) [Formula 14] | ≥ 75
CC(=O)Nc1ccc(S(=O)(=O)N2CCCC(C(=O)N3CCN(c4cc(C)nc5ccccc45)CC3)C2)cc1 (stereo not shown) [Formula 15, N-(4-(3-(1-(2-methylquinolin-4-yl)piperazine-4-carbonyl)piperidin-1-ylsulfonyl)phenyl) acetamide] | ≥ 75
CC(=O)Nc1ccc(S(=O)(=O)N2CCC[C@@H](C(=O)N3CCN(c4cc(C)nc5ccccc45)CC3)C2)cc1 [Formula 16, (R)—N-(4-((3-(4-(2-methylquinolin-4-yl)piperazine-1-carbonyl)piperidin-1-yl)sulfonyl)phenyl) acetamide] | ≥ 75
Cc1cc(N2CCN(C(=O)C3CCCN(S(=O)(=O)c4ccc([N+](=O)[O-])cc4)C3)CC2)c2ccccc2n1 (stereo not shown) [Formula 18, (4-(2-methylquinolin-4-yl)piperazin-1-yl) (1-(4-nitrophenylsulfonyl)piperidin-3-yl) methanone] | ≥ 75
Cc1cc(N2CCN(C(=O)C3CCCN(S(=O)(=O)c4cccc([N+](=O)[O-])c4)C3)CC2)c2ccccc2n1 (stereo not shown) [Formula 28, (4-(2-methylquinolin-4-yl)piperazin-1-yl) (1-(3-nitrophenylsulfonyl)piperidin-3-yl) methanone] | ≥ 75

Same assay, conditions: compound concentration 5 μM; '50%-75%'; read-out: % Inhibition 50%-75%

SMILES | inhibition at 5 µM [%]
O=C(C1CCCN(S(=O)(=O)c2ccccc2)C1)N1CCN(c2ccnc3cc(Cl)ccc23)CC1 (stereo not shown) [Formula 1, (4-(7-chloroquinolin-4-yl)piperazin-1-yl) (1-(phenylsulfonyl)piperidin-3-yl) methanone] | 50 to 75
Cc1ccc(S(=O)(=O)N2CCCC(C(=O)N3CCN(c4ccnc5cc(Cl)ccc45)CC3)C2)cc1 (stereo not shown) [Formula 2, (4-(7-chloroquinolin-4-yl)piperazin-1-yl) (1-tosylpiperidin-3-yl) methanone] | 50 to 75
O=C(C1CCCN(S(=O)(=O)c2ccc(F)cc2)C1)N1CCN(c2ccnc3cc(Cl)ccc23)CC1 (stereo not shown) [Formula 3, (4-(7-chloroquinolin-4-yl)piperazin-1-yl) (1-((4-fluorophenyl)sulfonyl)piperidin-3-yl) methanone] | 50 to 75
O=C(C1CCCN(S(=O)(=O)c2cccc(F)c2)C1)N1CCN(c2ccnc3cc(Cl)ccc23)CC1 (stereo not shown) [Formula 8, (4-(7-chloroquinolin-4-yl)piperazin-1-yl) (1-((3-fluorophenyl)sulfonyl)piperidin-3-yl) methanone] | 50 to 75
O=C(C1CCCN(S(=O)(=O)c2ccc(Oc3ccccc3)cc2)C1)N1CCN(c2ccnc3cc(Cl)ccc23)CC1 (stereo not shown) [Formula 9, (4-(7-chloroquinolin-4-yl)piperazin-1-yl) (1-((4-phenoxyphenyl)sulfonyl)piperidin-3-yl) methanone] | 50 to 75
COC(=O)c1ccc(S(=O)(=O)N2CCCC(C(=O)N3CCN(c4ccnc5cc(Cl)ccc45)CC3)C2)cc1 (stereo not shown) [Formula 12, methyl 4-((3-(1-(7-chloroquinolin-4-yl)piperazine-1-carbonyl)piperidin-1-yl)sulfonyl)benzoate] | 50 to 75
O=C(C1CCCN(S(=O)(=O)c2ccc(-c3ccccc3)cc2)C1)N1CCN(c2ccnc3cc(Cl)ccc23)CC1 (stereo not shown) [Formula 13, (4-(7-chloroquinolin-4-yl)piperazin-1-yl) (1-(4-phenylbenzenesulfonyl)piperidin-3-yl) methanone] | 50 to 75
CC(=O)Nc1ccc(S(=O)(=O)N2CCC[C@H](C(=O)N3CCN(c4cc(C)nc5ccccc45)CC3)C2)cc1 [Formula 17, (S)—N-(4-((3-(4-(2-methylquinolin-4-yl)piperazine-1-carbonyl)piperidin-1-yl)sulfonyl)phenyl) acetamide] | 50 to 75
Cc1cc(N2CCN(C(=O)C3CCCN(S(=O)(=O)c4ccc(F)cc4)C3)CC2)c2ccccc2n1 (stereo not shown) [Formula 24, (1-((4-fluorophenyl)sulfonyl)piperidin-3-yl) (4-(2-methylquinolin-4-yl)piperazin-1-yl) methanone] | 50 to 75
Cc1cc(N2CCN(C(=O)C3CCCN(S(=O)(=O)c4ccc(Cl)cc4)C3)CC2)c2ccccc2n1 (stereo not shown) [Formula 25, (1-(4-chlorophenylsulfonyl)piperidin-3-yl) (4-(2-methylquinolin-4-yl)piperazin-1-yl) methanone] | 50 to 75
Cc1cc(N2CCN(C(=O)C3CCCN(S(=O)(=O)c4ccc(C(F)(F)F)cc4)C3)CC2)c2ccccc2n1 (stereo not shown) [Formula 26, (4-(2-methylquinolin-4-yl)piperazin-1-yl) (1-(4-(trifluoromethyl)phenylsulfonyl)piperidin-3-yl) methanone] | 50 to 75
Cc1cc(N2CCN(C(=O)C3CCCN(S(=O)(=O)c4cccc(F)c4)C3)CC2)c2ccccc2n1 (stereo not shown) [Formula 27, (1-(3-fluorophenylsulfonyl)piperidin-3-yl) (4-(2-methylquinolin-4-yl)piperazin-1-yl) methanone] | 50 to 75
COc1ccc(S(=O)(=O)N2CCCC(C(=O)N3CCN(c4cc(C)nc5ccccc45)CC3)C2)cc1 (stereo not shown) [Formula 29, (1-(4-methoxyphenylsulfonyl)piperidin-3-yl) (4-(2-methylquinolin-4-yl)piperazin-1-yl)methanone] | 50 to 75
